Assay results taken from patent US20260078120A1, “SUBSTITUTED PYRIDOPYRIMIDINONES” (MIRATI THERAPEUTICS, INC., priority 2022, published 2026).

Experiments:
[1] = test system: T47D (PI3Kα H1047R mutant) cells; experiment: CellTiter-Glo 2.0 luminescent cell viability assay, 72 hours, T47D cells; format: cell-based; conditions: Homo sapiens, T47D, 72 h, T47D (PI3Kα H1047R mutant) cells, CellTiter-Glo, approximately 72 hours; read-out: T47D (H1047R mutant) Viability IC50
Method: This Example illustrates that exemplary compounds of the present invention decrease the viability of cells.
(§1) The ability of a compound of Formula (I) to decrease the viability of cells was measured using CellTiter-Glo 2.0 (CTG) Luminescent Cell Viability Assay (#G9241) obtained from Promega (Madison, WI).
To prepare assay plates for viability assays, cells were trypsinized, resuspended in fresh media, and viable cells were counted utilizing trypan blue exclusion. T47D, SKBR3, or MKN1 cells were seeded at 1000 cells in 30 μl per well in a solid white flat bottom 384 cell culture plate (Perkin Elmer #6007680) and incubated at 37° C. overnight.
(§2) Assay day 1, cells were dosed using an Echo Liquid Handler (Beckman Coulter) with compounds at a 10 um starting concentration and serially diluted (1:4) for a total of 10 concentrations. Cells were incubated for approximately 72 hours with the compounds (solubilized in DMSO) at 37° C. After 72 hours of treatment, cell plates were equilibrated to room temperature before adding 15 μl of CTG to each well, plates were then covered in aluminum foil to protect from light, incubated at room temperature for 30 minutes on a microtiter plate shaker, and luminescence readings were collected using a CLARIOstar microplate reader (BMG Labtech, Germany). Percent of vehicle control values were plotted as log (inhibitor) vs. response-Variable slope (four parameters) for curve fitting and IC50 values were determined using XLfit.

[2] = test system: SKBR3 (PI3Kα wild type) cells; experiment: CellTiter-Glo 2.0 luminescent cell viability assay, 72 hours, SKBR3 cells; format: cell-based; conditions: Homo sapiens, SK-BR-3, 72 h, SKBR3 (PI3Kα wild type) cells, CellTiter-Glo, approximately 72 hours; read-out: SKBR3 (WT) Viability IC50
Method: as §1
To prepare assay plates for viability assays, cells were trypsinized, resuspended in fresh media, and viable cells were counted utilizing trypan blue exclusion.
as §2

SMILES	IC50 [1]	IC50 [2]
Cc1cc([C@@H](C)Nc2ccccc2C(=O)O)c2nc(N3CCn4c(nnc4C(F)(F)F)C3)c(C#N)c(=O)n2c1 [Example 11-216, (R)-2-((1-(3-cyano-7-methyl-4-oxo-2-(3-(trifluoromethyl)-5,6-dihydro-[1,2,4]triazolo[4,3-a]pyrazin-7(8H)-yl)-4H-pyrido[1,2-a]pyrimidin-9-yl)ethyl)amino)benzoic acid]	> 10000 nM	> 10000 nM
Cc1cc([C@@H](C)Nc2ccccc2C(=O)O)c2nc(N3C4CC3CN(c3ccc(C#N)cc3)C4)c(C)c(=O)n2c1 [Example 11-181, 2-(((1R)-1-(2-(3-(4-cyanophenyl)-3,6-diazabicyclo[3.1.1]heptan-6-yl)-3,7-dimethyl-4-oxo-4H-pyrido[1,2-a]pyrimidin-9-yl)ethyl)amino)benzoic acid]	> 10000 nM	> 10000 nM
Cc1cc([C@@H](C)Nc2ccccc2C(=O)O)c2nc(N3C4CC3CN(c3ccc(C#N)cc3)C4)c(C#N)c(=O)n2c1 [Example 11-179, 2-(((1R)-1-(3-cyano-2-(3-(4-cyanophenyl)-3,6-diazabicyclo[3.1.1]heptan-6-yl)-7-methyl-4-oxo-4H-pyrido[1,2-a]pyrimidin-9-yl)ethyl)amino)benzoic acid]	1530 nM	> 10000 nM
Cc1cc([C@@H](C)Nc2ccc(F)cc2C(=O)O)c2nc(N3CCCCC3)c(C#N)c(=O)n2c1 [Example 11-293, (R)-2-((1-(3-cyano-7-methyl-4-oxo-2-(piperidin-1-yl)-4H-pyrido[1,2-a]pyrimidin-9-yl)ethyl)amino)-5-fluorobenzoic acid]	168 nM	> 10000 nM

Other lines, results leading:

IC50 [1]	IC50 [2]	SMILES
356 nM	> 10000 nM	Cc1cc([C@@H](C)Nc2ccccc2C(=O)O)c2nc(N3CCN(c4nc5cc(C(F)(F)F)ccc5s4)CC3)c(C)c(=O)n2c1 [Example 11-435, (R)-2-((1-(3,7-dimethyl-4-oxo-2-(4-(5-(trifluoromethyl)benzo[d]thiazol-2-yl)piperazin-1-yl)-4H-pyrido[1,2-a]pyrimidin-9-yl)ethyl)amino)benzoic acid]
310 nM	> 10000 nM	Cc1cc([C@@H](C)Nc2ccccc2C(=O)O)c2nc(N3CC4C5CCC5C4C3)c(C)c(=O)n2c1 (stereo partly drawn) [Example 11-33, 2-(((1R)-1-(3,7-dimethyl-4-oxo-2-(8-azatricyclo[4.3.0.0^2,5]nonan-8-yl)-4H-pyrido[1,2-a]pyrimidin-9-yl)ethyl)amino)benzoic acid]
> 10000 nM	> 10000 nM	Cc1cc([C@H](C)Nc2ccccc2C(=O)O)c2nc([C@H]3CCN(C)C(=O)C3)cc(=O)n2c1 [Example 11-374, 2-(((S)-1-(7-methyl-2-((S)-1-methyl-2-oxopiperidin-4-yl)-4-oxo-4H-pyrido[1,2-a]pyrimidin-9-yl)ethyl)amino)benzoic acid]
69.5 nM	> 10000 nM	Cc1cc([C@@H](C)Nc2ccccc2C(=O)O)c2nc(N3Cc4ccc(CO)cc4C3)c(C)c(=O)n2c1 [Example 10-137, (R)-2-((1-(2-(5-(hydroxymethyl)isoindolin-2-yl)-3,7-dimethyl-4-oxo-4H-pyrido[1,2-a]pyrimidin-9-yl)ethyl)amino)benzoic acid]
1300 nM	> 10000 nM	COc1cccc(-c2cc(=O)n3cc(C)cc(C(C)Nc4ccccc4C(=O)O)c3n2)c1 (centres unmarked) [Example 11-393, 2-((1-(2-(3-methoxyphenyl)-7-methyl-4-oxo-4H-pyrido[1,2-a]pyrimidin-9-yl)ethyl)amino)benzoic acid]
1600 nM	> 10000 nM	Cc1cc([C@@H](C)Nc2ccccc2C(=O)O)c2nc(N3CC4CCCCCCC4C3)c(C)c(=O)n2c1 (stereo partly drawn) [Example 11-27, 2-(((1R)-1-(2-(decahydro-2H-cycloocta[c]pyrrol-2-yl)-3,7-dimethyl-4-oxo-4H-pyrido[1,2-a]pyrimidin-9-yl)ethyl)amino)benzoic acid]
